Measurements: patent US12678509B2, “Inhibitor of apoptosis (IAP) protein antagonists” (Sanford Burnham Prebys Medical Discovery Institute, priority 2019, dated 2026)

Columns and labels:
BIR3 domain of cIAP1 = BIR3 domain of cIAP1 (Homo sapiens, UniProt Q13490); experiment: Fluorescence polarization assay; format: binding; conditions: SMAC-FITC probe, Ki calculated from IC50
Method: Binding of compounds to ML-IAP and BIR3 domain of cIAP1, cIAP2 and XIAP was determined by fluorescence polarization. Assay buffer was 100 mM KH2PO4 at pH 7.5, 50 μM ZnSO4, 1 mM TCEP (Tris(2-carboxyethyl)phosphine hydrochloride) and 50 nM SMAC-FITC probe (AbuRPF-K(5-Fam)-NH2) as described by Z. Nikolovska-Coleska et al.^9. cIAP1 and XIAP were present at 800 nM while cIAP2 and MLIAP were present at 1.5 μM. Compounds in 3-fold dilutions were added to the plates ranging from 30 μM to 1.5 nM. Assays were run in 384-well black plates read (Greiner Bio-One #784076) in an Analyst in fluorescence polarization mode with excitation at 485 nm and emission at 535 nm. Data was fit to a nonlinear regression curve in GraphPad Prism 8 to determine the IC50 values of the compounds. Ki's were then calculated from the IC50 values using equation: Ki=[I]50/([L]50/Kd+[P]0/Kd+1) formulated by Z. Nikolovska-Coleska et al.

SKOV-3 = experiment: Cell viability (CellTiter-Glo), 48 hrs; format: cell-based; conditions: Homo sapiens, SK-OV-3, 48 h, read-out: SKOV-3 Viability 48 h IC50
Method: One thousand seven hundred cells per well were plated in a 384 well plate and incubated overnight at 37° C./5% CO2. The following day, compounds in 10-fold dilutions were added to the plates and the plates returned to the incubator for 48 hrs. 48 hrs later, plates were removed to the bench and 20 μL CellTiter-Glo reagent was added to each well and the plates were read for luminescence on a Spark® multimode microplate reader (Tecan). Data were fit using PRISM to a nonlinear regression curve to determine the IC50 of the compounds.

MOLM 13 = experiment: Cell viability (CellTiter-Glo), 6-day compound treatment; format: cell-based, Human; conditions: Homo sapiens, MOLM-13, 144 h, read-out: MOLM 13 Viability 6 d IC50
Method: (§1) The compound 18a was tested in 16 different cell lines. For 6-day compound treatment 1700 cells per well were plated in a 384-well plate (Corning #781098) and incubated overnight at 37° C./5% CO2. The following day, compounds in 10-fold dilutions were added to the plates and the plates were incubated for 6 days. Afterwards, 20 μL CellTiter-Glo reagent (Promega, #G7570) was added to each well outside of the incubator and the plates were read for luminescence on a Spark® multimode microplate reader (Tecan). Data was fit in GraphPad Prism 8 to a nonlinear regression curve to determine the IC50 of the compounds. […]

[1] = system: latently infected cell line Jurkat 2D10; experiment: HIV Jurkat 2D10 cells GFP+ assay (reversal of HIV latency); format: cell-based; conditions: Homo sapiens, Jurkat, 48 h, read-out: Jurkat 2D10 GFP+ EC50
Method: Several compounds (Table 5) were tested for their efficacy in the reversal of HIV latency in the latently infected cell line Jurkat 2D10. Jurkat 2D10 cells were treated with different doses of the compounds, or one of the following compounds: BV-6, SM-164, Birinapant, LCL-161, GDC-0152, AT-406 for 48 hours. Reversal of HW latency was evaluated by analyzing GFP expression using flow cytometry. Induction of GFP expression was compared to baseline GFP levels detected in the absence of treatment.

NB-4 = experiment: Cell viability (CellTiter-Glo); format: cell-based, Human; conditions: Homo sapiens, NB-4, 72 h, read-out: NB-4 Viability 72 h IC50
Method: as §1, with “The following day, compounds in 10-fold dilutions were added to the plates and the plates were incubated for 6 days.” left out

Chain of BIR3 domain of cIAP1 (Q13490 253-363 limits assumed): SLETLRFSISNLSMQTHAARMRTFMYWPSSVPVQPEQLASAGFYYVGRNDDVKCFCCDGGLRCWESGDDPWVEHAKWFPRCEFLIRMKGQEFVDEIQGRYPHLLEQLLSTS

Compound	Ki (BIR3 domain of cIAP1)	IC50 (SKOV-3)	IC50 (MOLM 13)	EC50 [1]	IC50 (NB-4)
C=CCC1(CC=C)C[C@@H]2SCC[C@H](NC(=O)[C@H](C)NC)C(=O)N2[C@@H]1C(=O)N[C@H]1c2ccccc2C[C@H]1OCC#CC#CCO[C@@H]1Cc2ccccc2[C@@H]1NC(=O)[C@H]1N2C(=O)[C@@H](NC(=O)[C@H](C)NC)CCS[C@H]2CC1(CC=C)CC=C [Compound 18n, (2S)-2-{[(4S,7S,9aS)-7-{[(1S,2R)-2-[(6-{[(1S,2R)-1-[(4S,7S,9aS)-4-[(2S)-2-(Methylamino)propanamido]-5-oxo-8,8-bis(prop-2-en-1-yl)-octahydropyrrolo[2,1-b][1,3]thiazepine-7-amido]-2,3-dihydro-1H-inden-2-yl]oxy}hexa-2,4-diyn-1-yl)oxy]-2,3-dihydro-1H-inden-1-yl]carbamoyl}-5-oxo-8,8-bis(prop-2-en-1-yl)-octahydropyrrolo[2,1-b][1,3]thiazepin-4-yl]carbamoyl}-2-(methylazaniumyl)ethanide dichloride]	50 to 100 nM	10 to 100 nM	100 to 1000 nM	10 to 100 nM	
CN[C@@H](C)C(=O)N[C@H]1CCS[C@H]2CC(C)(C)[C@@H](C(=O)N[C@H]3c4ccccc4C[C@H]3OCCS(=O)(=O)CCO[C@@H]3Cc4ccccc4[C@@H]3NC(=O)[C@H]3N4C(=O)[C@@H](NC(=O)[C@H](C)NC)CCS[C@H]4CC3(C)C)N2C1=O [Compound 18h, (2S)-1-{[(4S,7S,9aS)-7-{[(1S,2R)-2-{2-[(2-{[(1S,2R)-1-({[(4S,7S,9aS)-8,8-Dimethyl-4-{[(2S)-2-(methylammonio)propanoyl]amino}-5-oxooctahydropyrrolo[2,1-b][1,3]thiazepin-7-yl]carbonyl}amino)-2,3-dihydro-1H-inden-2-yl]oxy}ethyl)sulfonyl]ethoxy}-2,3-dihydro-1H-inden-1-yl]carbamoyl}-8,8-dimethyl-5-oxooctahydropyrrolo[2,1-b][1,3]thiazepin-4-yl]amino}-N-methyl-1-oxopropan-2-ammonium dichloride]	≤ 50 nM	10 to 100 nM		10 to 100 nM	< 10 nM
CN[C@@H](C)C(=O)N[C@H]1CCS[C@H]2CC(C)(C)[C@@H](C(=O)N[C@H](CCC(=O)NCCNC(=O)CC[C@@H](NC(=O)[C@H]3N4C(=O)[C@@H](NC(=O)[C@H](C)NC)CCS[C@H]4CC3(C)C)c3ccccc3)c3ccccc3)N2C1=O [Compound 18l, (2S)-1-{[(4S,7S,9aS)-74{(1R)-4-[(2-{[(4R)-4-({[(4S,7S,9aS)-8,8-Dimethyl-4-{[(2S)-2-(methylammonio)propanoyl]amino}-5-oxooctahydropyrrolo[2,1-b][1,3]thiazepin-7-yl]carbonyl}amino)-4-phenylbutanoyl]amino}ethyl)amino]-4-oxo-1-phenylbutyl}carbamoyl)-8,8-dimethyl-5-oxooctahydropyrrolo[2,1-b][1,3]thiazepin-4-yl]amino}-N-methyl-1-oxopropan-2-ammonium dichloride]	≤ 50 nM	100 to 1000 nM		100 to 1000 nM	10 to 100 nM
CN[C@@H](C)C(=O)N[C@H]1CCS[C@H]2CC(C)(C)[C@@H](C(=O)N[C@H]3c4ccccc4C[C@H]3OCC#CCO[C@@H]3Cc4ccccc4[C@@H]3NC(=O)[C@H]3N4C(=O)[C@@H](NC(=O)[C@H](C)NC)CCS[C@H]4CC3(C)C)N2C1=O [Compound 18j]	≤ 50 nM	10 to 100 nM	1000 to 10000 nM	1000 to 10000 nM	< 10 nM
CN[C@@H](C)C(=O)N[C@H]1CCS[C@H]2CC3(CCCC3)[C@@H](C(=O)N[C@H]3c4ccccc4C[C@H]3OCC#CC#CCO[C@@H]3Cc4ccccc4[C@@H]3NC(=O)[C@H]3N4C(=O)[C@@H](NC(=O)[C@H](C)NC)CCS[C@H]4CC34CCCC4)N2C1=O [Compound 18r]				10 to 100 nM	
CNC(C)(C)C(=O)N[C@H]1CCS[C@H]2CC(C)(C)[C@@H](C(=O)N[C@H]3c4ccccc4C[C@H]3OCC#CC#CCO[C@@H]3Cc4ccccc4[C@@H]3NC(=O)[C@H]3N4C(=O)[C@@H](NC(=O)C(C)(C)NC)CCS[C@H]4CC3(C)C)N2C1=O [Compound 18k, 1-{[(4S,7S,9aS)-7-({(1S,2R)-2-[(6-{[(1S,2R)-1-({[(4S,7S,9aS)-8,8-Dimethyl-4-{[2-methyl-2-(methylammonio)propanoyl]amino}-5-oxooctahydropyrrolo[2,1-b][1,3]thiazepin-7-yl]carbonyl}amino)-2,3-dihydro-1H-inden-2-yl]oxy}hexa-2,4-diyn-1-yl)oxy]-2,3-dihydro-1H-inden-1-yl}carbamoyl)-8,8-dimethyl-5-oxooctahydropyrrolo[2,1-b][1,3]thiazepin-4-yl]amino}-N,2-dimethyl-1-oxopropan-2-ammonium dichloride]	50 to 100 nM	100 to 1000 nM	1000 to 10000 nM	> 10000 nM	10 to 100 nM
CN[C@@H](C)C(=O)N[C@H]1CCS[C@H]2C[C@H](O)[C@@H](C(=O)N[C@H]3c4ccccc4C[C@H]3OCC#CC#CCO[C@@H]3Cc4ccccc4[C@@H]3NC(=O)[C@@H]3[C@@H](O)C[C@@H]4SCC[C@H](NC(=O)[C@H](C)NC)C(=O)N43)N2C1=O [Compound 18p, [(1S)-1-{[(4S,7S,8S,9aS)-7-{[(1S,2R)-2-[(6-{[(1S,2R)-1-[(4S,7S,8S,9aS)-8-Hydroxy-4-[(2S)-2-(methylazaniumyl)propanamido]-5-oxo-octahydropyrrolo[2,1-b][1,3]thiazepine-7-amido]-2,3-dihydro-1H-inden-2-yl]oxy}hexa-2,4-diyn-1-yl)oxy]-2,3-dihydro-1H-inden-1-yl]carbamoyl}-8-hydroxy-5-oxo-octahydropyrrolo[2,1-b][1,3]thiazepin-4-yl]carbamoyl}ethyl](methyl)azanium dichloride]				100 to 1000 nM	
CN[C@@H](C)C(=O)N[C@H]1CCS[C@H]2CC(C)(C)[C@@H](C(=O)N[C@H]3c4ccccc4C[C@H]3OCC#Cc3cccc(C#CCO[C@@H]4Cc5ccccc5[C@@H]4NC(=O)[C@H]4N5C(=O)[C@@H](NC(=O)[C@H](C)NC)CCS[C@H]5CC4(C)C)c3)N2C1=O [Compound 18d]	≤ 50 nM	< 10 nM	100 to 1000 nM	< 1 nM	< 10 nM
CN[C@@H](C)C(=O)N[C@H]1CCS[C@H]2CC(C)(C)[C@@H](C(=O)N[C@H]3c4ccccc4C[C@H]3OCc3ccc(-c4ccc(CO[C@@H]5Cc6ccccc6[C@@H]5NC(=O)[C@H]5N6C(=O)[C@@H](NC(=O)[C@H](C)NC)CCS[C@H]6CC5(C)C)cc4)cc3)N2C1=O [Compound 18f, (2S)-1-{[(4S,7S,9aS)-7-{[(1S,2R)-2-({4-[4-({[(1S,2R)-1-({[(4S,7S,9aS)-8,8-Dimethyl-4-{[(2S)-2-(methylammonio)propanoyl]amino}-5-oxooctahydropyrrolo[2,1-b][1,3]thiazepin-7-yl]carbonyl}amino)-2,3-dihydro-1H-inden-2-yl]oxy}methyl)phenyl]benzyl}oxy)-2,3-dihydro-1H-inden-1-yl]carbamoyl}-8,8-dimethyl-5-oxooctahydropyrrolo[2,1-b][1,3]thiazepin-4-yl]amino}-N-methyl-1-oxopropan-2-ammonium dichloride]	50 to 100 nM	< 10 nM	100 to 1000 nM	1 to 10 nM	< 10 nM
